Results as given in EP3771715A1, “CRYSTALLINE FORMS OF BARICITINIB” (Zaklady Farmaceutyczne "Polpharma" S.A., priority 2019, dated 2021).

Assays:
Format in all cases: physicochemical
[1] = Crystalline stability against humidity (XRPD); conditions: no conversion into another crystalline form by XRPD
Experimental: Powder X-ray diffraction was performed with a Rigaku MiniFlex 600 diffractometer with Bragg-Brentano geometry CuKa radiation and D/teX Ultra Detector. The powder X-ray diffraction patterns were recorded at a tube voltage of 40kV and a tube current of 15 mA, applying a step size of 0.01° and speed 6.0°/min with the angular range 3-36° at ambient conditions.
A test for crystalline stability against humidity can be performed as follows: The sample is exposed to a relative humidity of 75% (±5%) at 40°C (±2°C) for 4 weeks. The expression "crystalline stability" means that no conversion into another crystalline form occurs, as determined by XRPD.
The equilibrium relative humidity of a sample is measured by determining the relative humidity in % in the air above a test sample, after establishment of a humidity equilibrium in a closed/open system at a constant temperature.
A test for crystalline stability against humidity has been performed as follows: The sample is exposed to a relative humidity of 75% (±5%) at 40°C(±2°C) for 4 weeks. The expression "crystalline stability" means that no conversion into another crystalline form occurs, as determined by XRPD.

[2] = Chemical stability under accelerated ICH storage conditions (HPLC); conditions: for Impurities (HPLC % a/a) RRT 1.30 / Impurities (HPLC % a/a) RRT 1.41 / Impurities (HPLC % a/a) RRT 1.40 / Impurities (HPLC % a/a) RRT 1.70 / Impurities (HPLC % a/a) RRT 2.20: 40°C, 75 ± 5% RH
Experimental: Purity and assay analysis was carried out using High Performance Liquid Chromatograph equipped with PDA detector. The analysis was conducted using Octadecyl silane (ODA or C18) chemically bonded to porous silica column, at a temperature of 40°C. The mobile phases was acetonitrile and 0.1% (v/v) ortho-phosphoric acid in water used in gradient.
Chemical stability study of the new crystalline forms of baricitinib i.e. PPH form I and PPH form II was performed under accelerated ICH storage conditions (40°C, 75±5% relative humidity). Samples were taken periodically (0 (start), after 1, 2, and 4 weeks) and analyzed by HPLC. Table 4 : HPLC purity of PPH form I of baricitinib

[3] = Hygroscopicity (statement, no method described)

Structure (SMILES): CCS(=O)(=O)N1CC(CC#N)(n2cc(-c3ncnc4[nH]ccc34)cn2)C1 [PPH form I, {1-(Ethylsulfonyl)-3-[4-(7H-pyrrolo[2,3-d]pyrimidin-4-yl)-1H-pyrazol-1-yl]-3-azetidinyl}acetonitrile]
- Crystalline stability study 40°C, 75 ± 5% RH After 1 week ([1]; after 1 week): Stable
- Crystalline stability study 40°C, 75 ± 5% RH After 4 weeks [1]: Stable
- Impurities (HPLC % a/a) RRT 1.30 ([2]; week 0): 0.01 % a/a
- Impurities (HPLC % a/a) RRT 1.41 ([2]; week 0): 0.03 % a/a
- Impurities (HPLC % a/a) RRT 1.30 ([2]; week 1): 0.01 % a/a
- Impurities (HPLC % a/a) RRT 1.41 ([2]; week 1): 0.03 % a/a
- Impurities (HPLC % a/a) RRT 1.30 ([2]; week 2): 0.01 % a/a
- Impurities (HPLC % a/a) RRT 1.41 ([2]; week 2): 0.03 % a/a
- Impurities (HPLC % a/a) RRT 1.30 ([2]; week 4): 0.01 % a/a
- Impurities (HPLC % a/a) RRT 1.41 ([2]; week 4): 0.03 % a/a
- Chemical stability (HPLC results) ([2]; during 0, 1, 2 and 4 weeks at 40°C, 75 ± 5% relative humidity): stable
- Hygroscopicity [3]: substantially non-hygroscopic

Structure (SMILES): CCS(=O)(=O)N1CC(CC#N)(n2cc(-c3ncnc4[nH]ccc34)cn2)C1 [PPH form II, {1-(Ethylsulfonyl)-3-[4-(7H-pyrrolo[2,3-d]pyrimidin-4-yl)-1H-pyrazol-1-yl]-3-azetidinyl}acetonitrile]
- Crystalline stability study 40°C, 75 ± 5% RH After 4 weeks ([1]; listed as PPH form II (Example 4)): Stable
- Crystalline stability study 40°C, 75 ± 5% RH After 4 weeks ([1]; listed as PPH form II of baricitinib): stable
- Impurities (HPLC % a/a) RRT 1.40 ([2]; week 0): 0.03 % a/a
- Impurities (HPLC % a/a) RRT 1.70 ([2]; week 0): 0.17 % a/a
- Impurities (HPLC % a/a) RRT 2.20 ([2]; week 0): 0.15 % a/a
- Impurities (HPLC % a/a) RRT 1.40 ([2]; week 1): 0.03 % a/a
- Impurities (HPLC % a/a) RRT 1.70 ([2]; week 1): 0.17 % a/a
- Impurities (HPLC % a/a) RRT 2.20 ([2]; week 1): 0.15 % a/a
- Impurities (HPLC % a/a) RRT 1.40 ([2]; week 2): 0.03 % a/a
- Impurities (HPLC % a/a) RRT 1.70 ([2]; week 2): 0.17 % a/a
- Impurities (HPLC % a/a) RRT 2.20 ([2]; week 2): 0.15 % a/a
- Impurities (HPLC % a/a) RRT 1.40 ([2]; week 4): 0.03 % a/a
- Impurities (HPLC % a/a) RRT 1.70 ([2]; week 4): 0.17 % a/a
- Impurities (HPLC % a/a) RRT 2.20 ([2]; week 4): 0.15 % a/a
